{"source": "patent US12472272B2", "about": "“Radiolabelled compounds for diagnosis or treatment of prostate-specific membrane antigen- expressing cancer” (PROVINCIAL HEALTH SERVICES AUTHORITY, priority 2019, dated 2025)", "test_system": "PSMA-expressing cancer xenografts (LNCaP)", "assay": "Biodistribution of ^177Lu-labeled HTK03041", "format": "in vivo, mice", "conditions": "for Tissue (% ID/g): Adrenal glands / Tissue (% ID/g): Blood / Tissue (% ID/g): Bone / Tissue (% ID/g): Brain / Tissue (% ID/g): Fat / Tissue (% ID/g): Heart / Tissue (% ID/g): Intestine / Tissue (% ID/g): Kidneys / Tissue (% ID/g): Lacrimal / Tissue (% ID/g): Liver / Tissue (% ID/g): Lungs / Tissue (% ID/g): Muscle / Tissue (% ID/g): Pancreas / Tissue (% ID/g): Salivary / Tissue (% ID/g): Seminal / Tissue (% ID/g): Spleen / Tissue (% ID/g): Stomach / Tissue (% ID/g): Tail / Tissue (% ID/g): Testes / Tissue (% ID/g): Thyroid / Tissue (% ID/g): Tumor / Tissue (% ID/g): Urine / tumor-to-background contrast ratio Tumor: Blood / tumor-to-background contrast ratio Tumor: Muscle / tumor-to-background contrast ratio Tumor: kidney: ^177Lu", "method": "Imaging and biodistribution experiments were performed using NODSCID 1L2RγKO male mice. Mice were anesthetized by inhalation with 2% isoflurane in oxygen, and implanted subcutaneously with 1×10^7 LNCaP cells behind left shoulder. Mice were imaged or used in biodistribution studies when the tumor grew up to reach 5-8 mm in diameter during 5-6 weeks.\nSPECT/CT imaging experiments were conducted using the MlLabs (Utrecht, the Netherlands) U-SPECT-II/CT scanner. Each tumor bearing mouse was injected with ˜37 MBq of ^177Lu-labeled HTK03041 through the tail vein under anesthesia (2% isoflurane in oxygen). The mice were allowed to recover and roam freely in their cage and imaged at 1, 4, 24, 72 and 120 hours after injection. At each time point, the mice were sedated again and positioned in the scanner. A 5-min CT scan was conducted first for anatomical reference with a voltage setting at 60 kV and current at 615 μA followed by a 60-min static emission scan acquired in list mode using an ultra-high resolution multi-pinhole rat-mouse (1 mm pinhole size) collimator. Data were reconstructed using the U-SPECT II software with a 20% window width on three energy windows. The photopeak window was centered at 208 keV, with lower scatter and upper scatter windows centered at 170 and 255 keV, respectively. Reconstruction parameters used maximum-likelihood expectation maximization (3 iterations), pixel-based ordered subset expectation maximization (16 subsets), and a post-processing filter (Gaussian blurring) of 0.5 mm. Images were decay corrected to injection time in PMOD (PMOD Technologies, Switzerland) then converted to DICOM for qualitative visualization in Inveon Research Workplace (Siemens Medical Solutions USA, Inc.).\nFor biodistribution studies, the mice were injected with the radiotracer as described above. At predetermined time points (1 or 3 h for ^68Ga studies; 1, 4, 24, 72, or 120 h for ^177Lu studies), the mice was anesthetized with 2% isoflurane inhalation, and euthanized by CO2 inhalation. Blood was withdrawn immediately from the heart, and the organs/tissues of interest were collected. The collected organs/tissues were weighed and counted using a Perkin Elmer (Waltham, MA) Wizard2 2480 gamma counter. The uptake in each organ/tissue was normalized to the injected dose using a standard curve, and expressed as the percentage of the injected dose per gram of tissue (% ID/g).", "data": [{"smiles": "O=C([O-])CN1CCN(CC(=O)[O-])CCN(CC(=O)NC[C@H]2CC[C@H](C(=O)N[C@@H](Cc3c4ccccc4cc4ccccc34)C(=O)NCCCC[C@H](NC(=O)N[C@@H](CCC(=O)O)C(=O)O)C(=O)O)CC2)CCN(CC(=O)[O-])CC1.[177Lu+3]", "note": "[^177Lu-HTK03041]", "values": [{"measurement": "peaked tumor uptake", "setting": "LNCaP tumor-bearing mice", "result": "~20", "unit": "% ID/g"}, {"measurement": "Tissue (% ID/g): Adrenal glands", "setting": "1 h post-injection", "result": "5.53 ± 1.90", "unit": "% ID/g"}, {"measurement": "Tissue (% ID/g): Blood", "setting": "1 h post-injection", "result": "0.84 ± 0.15", "unit": "% ID/g"}, {"measurement": "Tissue (% ID/g): Bone", "setting": "1 h post-injection", "result": "0.29 ± 0.07", "unit": "% ID/g"}, {"measurement": "Tissue (% ID/g): Brain", "setting": "1 h post-injection", "result": "0.04 ± 0.01", "unit": "% ID/g"}, {"measurement": "Tissue (% ID/g): Fat", "setting": "1 h post-injection", "result": "1.09 ± 0.20", "unit": "% ID/g"}, {"measurement": "Tissue (% ID/g): Heart", "setting": "1 h post-injection", "result": "2.44 ± 0.43", "unit": "% ID/g"}, {"measurement": "Tissue (% ID/g): Intestine", "setting": "1 h post-injection", "result": "1.25 ± 0.15", "unit": "% ID/g"}, {"measurement": "Tissue (% ID/g): Kidneys", "setting": "1 h post-injection", "result": "98.6 ± 9.27", "unit": "% ID/g"}, {"measurement": "Tissue (% ID/g): Lacrimal", "setting": "1 h post-injection", "result": "0.03 ± 0.04", "unit": "% ID/g"}, {"measurement": "Tissue (% ID/g): Liver", "setting": "1 h post-injection", "result": "1.91 ± 0.38", "unit": "% ID/g"}, {"measurement": "Tissue (% ID/g): Lungs", "setting": "1 h post-injection", "result": "4.41 ± 0.49", "unit": "% ID/g"}, {"measurement": "Tissue (% ID/g): Muscle", "setting": "1 h post-injection", "result": "0.94 ± 0.20", "unit": "% ID/g"}, {"measurement": "Tissue (% ID/g): Pancreas", "setting": "1 h post-injection", "result": "1.61 ± 0.24", "unit": "% ID/g"}, {"measurement": "Tissue (% ID/g): Salivary", "setting": "1 h post-injection", "result": "5.88 ± 0.82", "unit": "% ID/g"}, {"measurement": "Tissue (% ID/g): Seminal", "setting": "1 h post-injection", "result": "1.22 ± 0.85", "unit": "% ID/g"}, {"measurement": "Tissue (% ID/g): Spleen", "setting": "1 h post-injection", "result": "8.80 ± 2.53", "unit": "% ID/g"}, {"measurement": "Tissue (% ID/g): Stomach", "setting": "1 h post-injection", "result": "0.47 ± 0.18", "unit": "% ID/g"}, {"measurement": "Tissue (% ID/g): Tail", "setting": "1 h post-injection", "result": "3.41 ± 3.03", "unit": "% ID/g"}, {"measurement": "Tissue (% ID/g): Testes", "setting": "1 h post-injection", "result": "1.01 ± 0.17", "unit": "% ID/g"}, {"measurement": "Tissue (% ID/g): Thyroid", "setting": "1 h post-injection", "result": "3.38 ± 0.44", "unit": "% ID/g"}, {"measurement": "Tissue (% ID/g): Tumor", "setting": "1 h post-injection", "result": "10.8 ± 1.57", "unit": "% ID/g"}, {"measurement": "Tissue (% ID/g): Urine", "setting": "1 h post-injection", "result": "160 ± 49.6", "unit": "% ID/g"}, {"measurement": "tumor-to-background contrast ratio Tumor: Blood", "setting": "1 h post-injection", "result": "13.4 ± 4.08"}, {"measurement": "tumor-to-background contrast ratio Tumor: Muscle", "setting": "1 h post-injection", "result": "12.1 ± 4.21"}, {"measurement": "tumor-to-background contrast ratio Tumor: kidney", "setting": "1 h post-injection", "result": "0.11 ± 0.02"}, {"measurement": "Tissue (% ID/g): Adrenal glands", "setting": "4 h post-injection", "result": "3.41 ± 0.54", "unit": "% ID/g"}, {"measurement": "Tissue (% ID/g): Blood", "setting": "4 h post-injection", "result": "0.31 ± 0.04", "unit": "% ID/g"}, {"measurement": "Tissue (% ID/g): Bone", "setting": "4 h post-injection", "result": "0.45 ± 0.53", "unit": "% ID/g"}, {"measurement": "Tissue (% ID/g): Brain", "setting": "4 h post-injection", "result": "0.05 ± 0.05", "unit": "% ID/g"}, {"measurement": "Tissue (% ID/g): Fat", "setting": "4 h post-injection", "result": "0.56 ± 0.16", "unit": "% ID/g"}, {"measurement": "Tissue (% ID/g): Heart", "setting": "4 h post-injection", "result": "1.69 ± 0.13", "unit": "% ID/g"}, {"measurement": "Tissue (% ID/g): Intestine", "setting": "4 h post-injection", "result": "0.95 ± 0.08", "unit": "% ID/g"}, {"measurement": "Tissue (% ID/g): Kidneys", "setting": "4 h post-injection", "result": "101 ± 13.3", "unit": "% ID/g"}, {"measurement": "Tissue (% ID/g): Lacrimal", "setting": "4 h post-injection", "result": "0.02 ± 0.01", "unit": "% ID/g"}, {"measurement": "Tissue (% ID/g): Liver", "setting": "4 h post-injection", "result": "1.46 ± 0.17", "unit": "% ID/g"}, {"measurement": "Tissue (% ID/g): Lungs", "setting": "4 h post-injection", "result": "3.20 ± 0.41", "unit": "% ID/g"}, {"measurement": "Tissue (% ID/g): Muscle", "setting": "4 h post-injection", "result": "0.56 ± 0.15", "unit": "% ID/g"}, {"measurement": "Tissue (% ID/g): Pancreas", "setting": "4 h post-injection", "result": "1.15 ± 0.13", "unit": "% ID/g"}, {"measurement": "Tissue (% ID/g): Salivary", "setting": "4 h post-injection", "result": "2.18 ± 0.56", "unit": "% ID/g"}, {"measurement": "Tissue (% ID/g): Seminal", "setting": "4 h post-injection", "result": "0.57 ± 0.12", "unit": "% ID/g"}, {"measurement": "Tissue (% ID/g): Spleen", "setting": "4 h post-injection", "result": "3.22 ± 1.01", "unit": "% ID/g"}, {"measurement": "Tissue (% ID/g): Stomach", "setting": "4 h post-injection", "result": "0.37 ± 0.06", "unit": "% ID/g"}, {"measurement": "Tissue (% ID/g): Tail", "setting": "4 h post-injection", "result": "1.06 ± 0.60", "unit": "% ID/g"}, {"measurement": "Tissue (% ID/g): Testes", "setting": "4 h post-injection", "result": "0.92 ± 0.10", "unit": "% ID/g"}, {"measurement": "Tissue (% ID/g): Thyroid", "setting": "4 h post-injection", "result": "2.10 ± 0.19", "unit": "% ID/g"}, {"measurement": "Tissue (% ID/g): Tumor", "setting": "4 h post-injection", "result": "18.7±2.96", "unit": "% ID/g"}, {"measurement": "Tissue (% ID/g): Urine", "setting": "4 h post-injection", "result": "84.6 ± 39.3", "unit": "% ID/g"}, {"measurement": "tumor-to-background contrast ratio Tumor: Blood", "setting": "4 h post-injection", "result": "60.3 ± 4.81"}, {"measurement": "tumor-to-background contrast ratio Tumor: Muscle", "setting": "4 h post-injection", "result": "34.4 ± 8.39"}, {"measurement": "tumor-to-background contrast ratio Tumor: kidney", "setting": "4 h post-injection", "result": "0.19 ± 0.02"}, {"measurement": "Tissue (% ID/g): Adrenal glands", "setting": "24 h post-injection", "result": "0.76 ± 0.10", "unit": "% ID/g"}, {"measurement": "Tissue (% ID/g): Blood", "setting": "24 h post-injection", "result": "0.07 ± 0.00", "unit": "% ID/g"}, {"measurement": "Tissue (% ID/g): Bone", "setting": "24 h post-injection", "result": "0.07 ± 0.02", "unit": "% ID/g"}, {"measurement": "Tissue (% ID/g): Brain", "setting": "24 h post-injection", "result": "0.01 ± 0.00", "unit": "% ID/g"}, {"measurement": "Tissue (% ID/g): Fat", "setting": "24 h post-injection", "result": "0.16 ± 0.02", "unit": "% ID/g"}, {"measurement": "Tissue (% ID/g): Heart", "setting": "24 h post-injection", "result": "0.41 ± 0.07", "unit": "% ID/g"}, {"measurement": "Tissue (% ID/g): Intestine", "setting": "24 h post-injection", "result": "0.30 ± 0.06", "unit": "% ID/g"}, {"measurement": "Tissue (% ID/g): Kidneys", "setting": "24 h post-injection", "result": "20.3 ± 6.51", "unit": "% ID/g"}, {"measurement": "Tissue (% ID/g): Lacrimal", "setting": "24 h post-injection", "result": "0.00 ± 0.00", "unit": "% ID/g"}, {"measurement": "Tissue (% ID/g): Liver", "setting": "24 h post-injection", "result": "0.42 ± 0.08", "unit": "% ID/g"}, {"measurement": "Tissue (% ID/g): Lungs", "setting": "24 h post-injection", "result": "0.83 ± 0.12", "unit": "% ID/g"}, {"measurement": "Tissue (% ID/g): Muscle", "setting": "24 h post-injection", "result": "0.15 ± 0.03", "unit": "% ID/g"}, {"measurement": "Tissue (% ID/g): Pancreas", "setting": "24 h post-injection", "result": "0.26 ± 0.04", "unit": "% ID/g"}]}]}
